According to US8633168B2, “Inhibitors of S-adenosyl-L-methionine decarboxylase” (Genzyme Corporation, priority 2007, dated 2014):
Read-outs that look alike come from different tables or passages of the source.

Tests used:
CYP3A4 = CYP3A4 (Homo sapiens, UniProt P08684); assay: Cytochrome P450 inhibition, CYP3A4
Source text: This cytochrome P450 high throughput IC50 inhibition assay is utilized for screening potential inhibitors of the 5 major human CYP isozyme catalytic activities (CYP3A4, 2D6, 2C9, 2C19, and 1A2).

[1] = Microsomal stability, human; format: in vitro ADME; settings: for Microsomal stability (CL) human: Table 2; for CLint scaled: Example 12 chart
Method: Liver microsomes and hepatocytes represent an in vitro surrogate for assessing the phase I/II metabolic stability of new discovery leads. Following the incubation of the compounds with microsomes or hepatocytes of different species (e.g., human, rat, dog, monkey, mouse), the samples were transferred to 96 well plates for quantitation using LC/MS/MS. The % of compound remaining was measured and used to calculate clearance and % hepatic blood flow.

Mouse brain exposure = format: in vivo; settings: for AUC / Kp: Table 3; for AUC: mouse brain; for Kp: mouse, read-out: Mouse Brain exposure compared with blood AUC (%)
Method: This was determined by harvesting brains at selected time points, weighing and extracting total tissue homogenate for LC/MS/MS analysis. The amount of test compound associated with the brain was calculated by subtracting that amount attributable to blood vessels (7%, times the blood exposure levels).

T. b. brucei - STIB795 = assay: In vivo efficacy, acute T. b. brucei STIB795 infection model in mice; design: species or system mouse (NMRI); settings: for average (survival days) / cured/infected: 4 × 50 mg/kg i.p., NMRI mice; for average (survival days): control 6; for activity in the model (lengthening the survival days) / mice cured: STIB795 model, footnote of Table 4; for protection from lethal effects of infection: controls died on average by Day 6
Method: Compounds are tested for efficacy in the acute model for T. b. brucei infection (Bitonti A J, Byers T L, Bush T L, Casara P J, Bacchi C J, Clarkson A B, Jr., McCann P P, Sjoerdsma A, 1990. Cure of Trypanosoma brucei brucei and Trypanosoma brucei rhodesiense infections in mice with an irreversible inhibitor of S-adenosylmethionine decarboxylase. Antimicrob Agents Chemother 34: 1485-1490). Briefly, mice are infected with 1×10^4 strain STIB 795 trypanosomes on Day 0, then treated once/day (50 mg/kg i.p) with test compound for 4 days starting on Day 3. Animals are assessed by microscopic examination of blood smears twice/week through Day 60. Untreated animals generally die by Days 7-9.

[2] = read-out: CYP IC50 3A4, Example 12 chart

CYP3A4, sequence (P08684 whole entry): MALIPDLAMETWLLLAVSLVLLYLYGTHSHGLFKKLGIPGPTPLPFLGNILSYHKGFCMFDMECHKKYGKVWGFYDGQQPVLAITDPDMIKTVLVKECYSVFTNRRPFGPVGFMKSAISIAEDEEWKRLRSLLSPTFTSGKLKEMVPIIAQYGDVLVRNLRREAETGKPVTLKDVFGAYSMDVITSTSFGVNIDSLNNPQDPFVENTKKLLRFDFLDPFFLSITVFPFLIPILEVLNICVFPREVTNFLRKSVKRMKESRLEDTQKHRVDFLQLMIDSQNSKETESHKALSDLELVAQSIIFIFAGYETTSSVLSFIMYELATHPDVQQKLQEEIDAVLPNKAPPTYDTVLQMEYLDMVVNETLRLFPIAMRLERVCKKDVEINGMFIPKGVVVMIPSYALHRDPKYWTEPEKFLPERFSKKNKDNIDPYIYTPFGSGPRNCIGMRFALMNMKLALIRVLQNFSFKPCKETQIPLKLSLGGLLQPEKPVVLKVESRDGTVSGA

Microsomal stability (CL) human [1] [mL/min/kg]	CLint scaled ([1]; liver microsomes) [mL/min/kg]	AUC (Mouse brain exposure) [ng·h/mL]	Kp (Mouse brain exposure; brain relative to blood)	IC50 (CYP3A4; [2]) [µM]	SMILES	survival of treated animals (T. b. brucei - STIB795)	average (survival days) (T. b. brucei - STIB795) [days]	cured/infected (T. b. brucei - STIB795; >30 Days)	activity in the model (lengthening the survival days) (T. b. brucei - STIB795)	protection from lethal effects of infection (T. b. brucei - STIB795)	IC50 (CYP3A4) [µM]	further results
<4.2	< 4.5	26	0.0016		CN(C/C=C\CN)C[C@H]1O[C@@H](n2cnc3c(N)ncnc32)[C@H](F)[C@@H]1O (stereo in doubt) [Compound 1]							IC50 (CYP3A4; human, probe fluorometric substrates (not named)): > 5 µM
<4.2	< 4.5			> 5	CN(C/C=C\CN)C[C@H]1O[C@@H](n2cnc3c(N)ncnc32)[C@@H](F)[C@@H]1O [Compound 2]						> 5	
<4.2	< 4.5	170	0.0077	> 5	CN(C/C=C\CN)C[C@H]1O[C@@H](n2cnc3c(N)nc(Cl)nc32)[C@H](O)[C@@H]1O [Compound 3]						> 5	

SMILES	Microsomal stability (CL) human [1] [mL/min/kg]	CLint scaled ([1]; liver microsomes) [mL/min/kg]	AUC (Mouse brain exposure) [ng·h/mL]	Kp (Mouse brain exposure; brain relative to blood)	IC50 (CYP3A4; [2]) [µM]	survival of treated animals (T. b. brucei - STIB795)	average (survival days) (T. b. brucei - STIB795) [days]	cured/infected (T. b. brucei - STIB795; >30 Days)	activity in the model (lengthening the survival days) (T. b. brucei - STIB795)	protection from lethal effects of infection (T. b. brucei - STIB795)	IC50 (CYP3A4) [µM]	further results
Cc1nc2c(N)ncnc2n1[C@@H]1O[C@H](CN(C)C/C=C\CN)[C@@H](O)[C@H]1O (stereo in doubt) [Compound 4]	<4.2	< 4.5	1180	0.066	> 5	all survived through Day 30	>30	1/4	active in the model in terms of lengthening the survival days	protected mice from lethal effects of infection	> 5	cured/infected (T. b. brucei - STIB795; 20 Days): 20 Days 0/4; parasites on Day 20 (T. b. brucei - STIB795; Day 20): appeared free of parasites; parasites on Day 30 (T. b. brucei - STIB795; Day 30): parasites were again evident; mice cured (T. b. brucei - STIB795; listed as Compound No. 4): ¼; percentage of brain blood barrier penetration (compared with MDL-73811) (Mouse brain exposure; text b82): higher percentage of brain blood barrier penetration; mouse brain exposure, fold greater than for MDL 73811 (Mouse brain exposure; vs MDL73811): ~4 fold
CN(C/C=C\CN)CC1OC(n2cnc3c(N)ncnc32)C(O)C1O (stereo not shown) [MDL-73811, reference compound]	<4.2					all survived through Day 30	>30	1/4	active in the model in terms of lengthening the survival days	protected mice from lethal effects of infection	> 5	logD (physchem): -1.8; cured/infected (T. b. brucei - STIB795; 26 Days): 26 Days 2/4; mice cured (T. b. brucei - STIB795): ¼; IC50 (CYP3A4; human): > 5 µM; CLint scaled ([1]; microsomes): < 4.5 mL/min/kg; AUC (Mouse brain exposure; in vivo): 280 ng·h/mL; Kp (Mouse brain exposure; in vivo): 0.0134
